# According to patent US8557767B2, “Synthetic apolipoprotein E mimicking polypeptides and methods of use” (UAB Research Foundation, priority 2007, dated 2013):
# Legend:
# [1] = system: plasma LDL from WHHL rabbits; test: Association of 125I-labelled peptide with WHHL rabbit plasma lipoproteins (CLiP); format: binding
# Description: (§1) 100 μg of the ^125I-labelled peptide was mixed with 1 ml of plasma from 6 month old WHHL rabbit. After incubation for 1 h at room temperature, the plasma was subjected to CLiP analysis (66). Radioactivity in different fractions was determined and plotted on the CLiP profile. […] This improvement was associated with a reduction in 2 markers of oxidative stress.
# VCAM-1 = test: LPS-induced VCAM-1 expression in HUVEC (Western blot); format: cell-based, human; conditions: peptide 50 ug/ml, LPS 1 ug/ml, 6 h exposure
# Excerpt: HUVECs were challenged with the peptide alone, peptide +LPS and LPS. LPS induces expression of VCAM-1 (lane 3).
# The effect of the peptide on the inflammatory response of bacterial lipopolysaccaride (LPS), a potent inducer of cytokines and cell adhesion molecules was also examined.
# apo E null mice = test: Plasma cholesterol in apo E null mice after i.v. dual-domain peptides; format: in vivo; conditions: iv, n=4
# Description: The peptides represented are Ac-hE-18A-NH2, Ac-hE4F-NH2, and Ac-hE-Sc2F-NH2. Peptides Ac-hE-18A-NH2, Ac-hE-4F-NH2 and Ac-hE-Sc18A were administered (i.v.) to apo E null mice (n=4) and plasma cholesterol values were determined at before administration (0 min), 5 min and 2 h after administration.
# As described above, peptides Ac-hE-18A-NH2, Ac-hE-4F-NH2 and Ac-hE-Sc18A were administered (iv) to apo E null mice (n=4) and plasma cholesterol values were determined at before administration (0 min), 5 min and 2 h after administration.
# [2] = system: MEF 1 cells with induced LDL receptors; conditions: cited from earlier work
# [3] = system: C57BL/6J mice fed an atherogenic diet; test: Plasma cholesterol after one-time i.v. administration in C57BL/6J mice fed an atherogenic diet; format: in vivo
# WHHL rabbits = test: Single bolus i.v. administration in WHHL rabbits; format: in vivo, rabbit
# Description: as §1
# Results observed in HepG2 cells indicate that peptide associates with apo B-containing plasma lipoproteins to incorporate positive charges on the lipoprotein surface. This enables the apo B-containing lipoproteins to interact with heparan sulphate proteoglycans (HSPGs). The effect of these peptides on the mode of reduction of plasma cholesterol levels in mouse models and the two rabbit models can be determined. In NZW rabbits fed a 1% cholesterol-diet, a reduction of plasma cholesterol is observed which lasts for 14 days after the peptide administration; whereas in the WHHL rabbits, the reduction is initially rapid and returns to original levels within 3 days. Since the WHHL rabbit model is LDL-receptor defective, the differential effects of the peptide in two models can be due to differences in the receptor-mediated clearance pathways of atherogenic lipoproteins. HepG2 cells, primary hepatocytes from apo E null and LDL-R null mice, and primary rabbit hepatocytes can be used to determine the molecular factors in the receptor-mediated clearance pathways of atherogenic lipoproteins.
# [4] = single bolus 15 mg/kg intravenous
substance,measurement,setting,value
Ac-LRKLRKRLLRDWLKAFYDKVAEKLKEAF-NH2 [Ac-hE-18A-NH2],association with WHHL plasma lipoproteins,"[1]; 100 ug 125I-labelled peptide in 1 ml plasma, 1 h room temperature",associates with LDL
same,LOOH content of peptide-treated WHHL plasma LDL,[1]; compared to plasma from untreated rabbits,reduced amounts of LOOH
same,inhibition of LPS-induced VCAM-1 expression,VCAM-1,more than 80%
same,reduction in plasma cholesterol levels at 2 h time point,apo E null mice,large reduction
same,LDL internalization enhanced,[2],five
same,time for which lower total cholesterol levels were observed vs control,"[3]; 100 ug i.v. one time, continued atherogenic diet",≥ 8 days
same,initial decrease of plasma cholesterol,"[3]; 100 ug i.v., n=9",> 65%
same,time for plasma cholesterol to return to original levels,WHHL rabbits; WHHL rabbits,≤ 3 days
same,arterial endothelial function,WHHL rabbits; [4],significantly improved
same,formation of superoxide anion in arteries,WHHL rabbits; [4],significantly reduced
same,increase in HDL paraoxonase activity,WHHL rabbits; [4],5 fold
same,plasma lipid hydroperoxide content,WHHL rabbits; [4],reduced significantly
same,plasma cholesterol levels at 18 h,"WHHL rabbits; single bolus 15 mg/kg intravenous, reduced from 562±29 mg/dl",287 ± 22 mg/dL
